Data taken from patent US9944967B2, “Methods for the site-selective introduction of halogen into natural products” (THE REGENTS OF THE UNIVERSITY OF CALIFORNIA, priority 2013, dated 2018).

How the values were obtained:
[1] = target: T1, acetyl-CoA carboxylase (ACCase) (Escherichia coli, UniProt P0A9Q5+P0ABD5); assay: Acetyl-CoA carboxylase discontinuous HPLC assay with AckA-Pta; assay type: biochemical, E. coli
T1 construct: made in house; host or cells: E. coli BL21(de3)T1R
Experimental: ACCase activity was measured using a discontinuous HPLC assay. Assays were performed at 30° C. in a total volume of 200 μL containing 50 mM HEPES, pH 7.5, TCEP (10 mM), bovine serum albumin (3 mg/mL), CoA (0.5 mM), ATP (2.5 mM), magnesium chloride (10 mM), sodium bicarbonate (75 mM), acetate or fluoroacetate (10 mM), phosphoenolpyruvate (10 mM), pyruvate kinase (4 U), AckA (0.1 μM), Pta (10 μM) and ACCase (15 μM). The pH of the buffer remained unchanged after addition of sodium bicarbonate. ACCase stock solution was prepared by pre-mixing the protein subunits at equimolar ratio (85 μM) except for AccB, which was added at 1.5-fold molar excess. The reaction was initiated with addition of ATP. Aliquots (20 μL) were removed and quenched by the addition of 70% perchloric acid (1 μL). Insoluble material was removed by centrifugation and the supernatant was analyzed on an Agilent 1200 or 1290 HPLC system on a LiChroCART 250-4 Purospher RP-18e column (5 μm, 4.6×250 mm, Millipore) and monitored at A260 nm. For reactions with acetate, a linear gradient from 2 to 20% acetonitrile over 10 min with 5 mM sodium phosphate and 5 mM sodium citrate with 0.1% trifluoroacetic acid, pH 4.6 as the aqueous mobile phase (1 mL/min) was used to analyze the reaction. […]

DEBSMod2/AT^0 = target: T2, DEBSMod2/AT^0 (Saccharopolyspora erythraea, UniProt Q03131, S2598A); assay: Triketide lactone production using DEBSMod2/AT0; assay type: biochemical; conditions: overnight; for conversion of NDK-SNAC to R-TKL: NDK-SNAC (500 μM), respective acyl-CoA regeneration system
T2 construct: MBP (N); His6 (C); His6 (N); made in house; host or cells: E. coli BAP1 (pRARE2 co-expressed)
Experimental: All assay mixtures contained 400 mM sodium phosphate, pH 7.5, phosphoenolpyruvate (20 mM), TCEP (5 mM), magnesium chloride (5 mM), ATP (2.5 mM), pyruvate kinase (18 U/mL), myokinase (10 U/mL), methylmalonyl-CoA epimerase (5 μM), CoA (1 mM), MatB (20 μM), NDK-SNAC (500 μM) and either methylmalonate, fluoromalonate or malonate (5 mM) as appropriate. Reactions were initiated by addition of DEBSMod2/AT^0 (10 μM) and incubated at 37° C. overnight. Aliquots were removed, quenched by addition of HCl to 1 M, then processed and analyzed as described above.

DEBSMod6+TE [2] = assay: Time-course of TKL and F-TKL formation by DEBSMod6+TE with substrate regeneration; assay type: biochemical
Experimental: Assay and preparative mixtures contained 400 mM sodium phosphate, pH 7.5, phosphoenolpyruvate (50 mM), TCEP (5 mM), magnesium chloride (10 mM), ATP (2.5 mM), pyruvate kinase (27 U/mL), myokinase (10 U/mL), CoA (0.5 mM), methylmalonyl-CoA epimerase (5 μM), MatB (40 μM or as specified) and fluoro- or methylmalonate (10-20 mM). […] This mixture was incubated at 37° C. for 30-45 min and then initiated by addition of the N-acetylcysteamine thioester of (2S,3R)-2-methyl-3-hydroxypentanoic acid (NDK-SNAC, 1-10 mM) (Cane, D. E., et al., J. Am. Chem., 115:527-535 (1993)) and DEBSMod6+TE (10 μM). Aliquots (35 μL) were removed and quenched by addition of 70% perchloric acid (1.75 μL). […] The supernatant was removed and analyzed on a Zorbax Eclipse XDB C-18 column (3.5 μm, 3×150 mm, 35° C., Agilent) using a linear gradient from 0 to 40% acetonitrile over 14 min with 0.1% formic acid as the aqueous mobile phase after an initial hold at 0% acetonitrile for 30 s (0.8 mL/min) Products were monitored using an Agilent G1315D diode array detector (TKL, A260 nm or A275 nm, F-TKL, A247 nm, NDK-SNAC; A260 nm). […] For absolute quantification, each analyte was compared to an external standard curve. […] The concentrations of TKL and H-TKL were determined by ^1H NMR in D2O using the ERETIC method against an external standard of diethylfluoromalonate (75 mM).

DEBSMod6+TE [3] = assay: Triketide lactone production under competitive conditions; assay type: biochemical
Experimental: For reactions with substrate regeneration, assay mixtures contained 400 mM sodium phosphate, pH 7.5, phosphoenolpyruvate (50 mM), TCEP (5 mM), magnesium chloride (10 mM), ATP (2.5 mM), pyruvate kinase (27 U/mL), myokinase (10 U/mL), methylmalonyl-CoA epimerase (5 μM), NDK-SNAC (15 mM) and DEBSMod6+TE (10 μM). Reactions were initiated by simultaneous addition of MatB (40 μM), fluoromalonyl-CoA (1 μM) and malonyl-CoA (1 μM) and incubated at 37° C. for 18-20 h. Protein was removed by filtration through a 3 kDa NWCO membrane at 14,000×g and the filtrate was analyzed by LC-MS. Standards of H-TKL and F-TKL were prepared using a mock reaction mixture (acyl-CoAs replaced by CoAs and NDK-SNAC replaced by N-acetyl cysteamine) as diluent. TKLs were quantified using single ion monitoring, H-TKL in positive mode and F-TKL in negative mode. For reactions without substrate regeneration, assay mixtures contained 400 mM sodium phosphate, pH 7.5, TCEP (5 mM), methylmalonyl-CoA epimerase (5 μM), NDK-SNAC (3 mM) and DEBSMod6+TE (10 μM). Reactions were initiated by adding fluoromalonyl-CoA (1 mM) and malonyl-CoA (1 mM) simultaneously. The mixtures were incubated at 37° C. for 20 h, then quenched, processed and analyzed as described above. H-TKL was monitored using an Agilent 6130 MS operating in positive ion mode, and the limit of detection was verified by spiking samples to 50 nM H-TKL using a standard solution.

DEBSMod6+TE [4] = target: T3, DEBSMod6+TE (Saccharopolyspora erythraea, UniProt Q03133); assay: Acyl-CoA hydrolysis by DEBSMod6+TE (DTNB assay); assay type: biochemical; conditions: for v0 (rate of acyl-CoA hydrolysis): DEBSMod6 + TE (1 μM), acyl-CoA (500 μM), mean ± s.d. (n = 4); for Relative rate of acyl-CoA hydrolysis: relative to methylmalonyl-CoA
T3 construct: the sixth module of DEBS, including the terminal thioesterase (DEBSMod6+TE); His6 (C); made in house; host or cells: E. coli BAP1
Experimental: Hydrolytic activity of DEBSMod6+TE was measured by monitoring the reaction of free CoA with DTNB as described previously (Huang, F., et al., Chem. Biol., 13:475-484 (2006)). Assays were performed at 37° C. in a total volume of 200 μL containing 400 mM sodium phosphate, pH 7.5, 500 μM DTNB, and DEBSMod6+TE (1 μM). Reactions were initiated by addition of acyl-CoA (0.5 mM) and monitored at 412 nm in a Beckman Coulter DU-800 spectrophotometer. Release of CoA was quantified by comparison to a standard curve (5-100 μM).

NphT7 = target: T4, NphT7 (Streptomyces sp., UniProt D7URV0); assay: Acetoacetyl-CoA synthase NphT7 NADPH-coupled assay with PhaB; assay type: biochemical; conditions: NphT7 reaction product
T4 construct: made in house; host or cells: E. coli BL21(de3)T1R
T4 sequence (D7URV0 1-329): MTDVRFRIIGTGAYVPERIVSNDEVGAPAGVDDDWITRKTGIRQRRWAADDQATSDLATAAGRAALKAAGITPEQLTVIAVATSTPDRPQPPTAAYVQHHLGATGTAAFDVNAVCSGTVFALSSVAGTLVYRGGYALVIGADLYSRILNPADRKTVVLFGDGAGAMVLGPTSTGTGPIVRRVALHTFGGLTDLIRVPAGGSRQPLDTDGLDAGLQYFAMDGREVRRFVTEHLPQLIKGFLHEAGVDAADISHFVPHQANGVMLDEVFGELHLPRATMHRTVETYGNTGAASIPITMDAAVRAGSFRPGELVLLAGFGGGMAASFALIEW
Experimental: NphT7 activity was measured using a NADPH-coupled assay with PhaB. Assays were performed at 30° C. in a total volume of 500 μL containing 50 mM HEPES, pH 7.5, NADPH (160 μM), acetyl-CoA (200 μM), PhaB (0.05 mg/mL), NphT7 (0.2 μM for malonyl-CoA; 0.5 μM for fluoromalonyl-CoA) and malonyl-CoA (5-150 μM) or fluoromalonyl-CoA (5-200 μM). Reactions were initiated with the addition of malonyl- or fluoromalonyl-CoA and monitored at 340 nm in an Agilent 8453 diode array spectrophotometer. The PhaB-coupled assay was tested both by doubling NphT7, which doubled the initial velocity with both the fluorinated and non-fluorinated substrates, and also by doubling the amount of PhaB, which led to no difference in initial velocity.

[5] = MatB regeneration, equimolar malonyl-CoA and fluoromalonyl-CoA, mean ± s.d. (n = 3)

## CC(C)(COP(=O)(O)OP(=O)(O)OC[C@H]1O[C@@H](n2cnc3c(N)ncnc32)[C@H](O)[C@@H]1OP(=O)(O)O)[C@@H](O)C(=O)NCCC(=O)NCCSC(=O)CF [fluoroacetyl-CoA]
[1]; judged from overall extent of reaction
  covalent inactivation of the ACCase: not significant

## CC[C@H]1OC(=O)[C@@H](F)C(=O)[C@H]1C [F-TKL, (2S,4S,5R)-2-fluoro-4-methyl-3-oxo-5-hydroxy-n-heptanoic Acid δ-lactone]
DEBSMod2/AT^0
  conversion of NDK-SNAC to R-TKL: 43%
DEBSMod6+TE [2]; 10 mM NDK-SNAC
  Initial rate of F-TKL formation: 0.14 h⁻¹
DEBSMod6+TE [3]; MatB regeneration
  [F-TKL]/[H-TKL]: 10.3 ± 0.1
DEBSMod6+TE [3]; [5]
  [F-TKL]: 7,390 ± 520 nM
DEBSMod6+TE [3]; No regeneration
  [F-TKL]/[H-TKL]: >9
DEBSMod6+TE [3]; No regeneration, equimolar malonyl-CoA and fluoromalonyl-CoA (1 mM), mean ± s.d. (n = 3)
  [F-TKL]: 450 ± 60 nM
DEBSMod6+TE [3]; direct competition, equimolar (1 mM) fluoromalonyl-CoA and malonyl-CoA
  fold more F-TKL than H-TKL produced: at least 10 fold

## CCC1OC(=O)CC(O)C1C (stereo not drawn) [H-TKL, 2-desmethyltriketide lactone, reference compound]
DEBSMod2/AT^0
  conversion of NDK-SNAC to R-TKL: < 0.01%
DEBSMod6+TE [3]; [5]
  [H-TKL]: 720 ± 50 nM
DEBSMod6+TE [3]; No regeneration, equimolar malonyl-CoA and fluoromalonyl-CoA (1 mM)
  [H-TKL]: <50 nM

## CC[C@@H](O)[C@H](C)C(=O)SCCNC(C)=O [NDK-SNAC, (2S,3R)-2-methyl-3-hydroxypentanoyl-N-acetylcysteamine thioester]
DEBSMod2/AT^0; fluoromalonyl-CoA regeneration system
  NDK-SNAC consumed: 82%
DEBSMod2/AT^0; malonyl-CoA regeneration system
  NDK-SNAC consumed: 100%

## O=C(O)CF [Fluoroacetate, reference compound]
[1]; one-pot AckA-Pta/ACCase carboxylation
  fold slower rate of conversion compared to acetate: 4.5 fold

## CC(C(=O)O)C(=O)SCCNC(=O)CCNC(=O)[C@H](O)C(C)(C)COP(=O)(O)OP(=O)(O)OC[C@H]1O[C@@H](n2cnc3c(N)ncnc32)[C@H](O)[C@@H]1OP(=O)(O)O (stereo partly drawn) [Methylmalonyl-CoA]
DEBSMod6+TE [4]
  v0 (rate of acyl-CoA hydrolysis): 1.36 ± 0.05 µM/min
  Relative rate of acyl-CoA hydrolysis: 1.0

## CC(=O)C(F)C(=O)SCCNC(=O)CCNC(=O)[C@H](O)C(C)(C)COP(=O)(O)OP(=O)(O)OC[C@H]1O[C@@H](n2cnc3c(N)ncnc32)[C@H](O)[C@@H]1OP(=O)(O)O (stereo partly drawn) [acetofluoroacetyl-CoA]
NphT7
  stability under the assay conditions: degrade fairly rapidly

## CC(C)(COP(=O)(O)OP(=O)(O)OC[C@H]1O[C@@H](n2cnc3c(N)ncnc32)[C@H](O)[C@@H]1OP(=O)(O)O)[C@@H](O)C(=O)NCCC(=O)NCCSC(=O)CC(=O)O [Malonyl-CoA]
DEBSMod6+TE [4]
  v0 (rate of acyl-CoA hydrolysis): 6.1 ± 0.4 µM/min
  Relative rate of acyl-CoA hydrolysis: 4.5

## CC[C@H]1OC(=O)[C@H](C)C(=O)[C@H]1C [TKL, (2R,4S,5R)-2,4-Dimethyl-3-oxo-5-hydroxy-n-heptanoic acid β-lactone, reference compound]
DEBSMod2/AT^0
  conversion of NDK-SNAC to R-TKL: all
DEBSMod6+TE [2]; 2.5 mM NDK-SNAC
  Initial rate of TKL formation: 1.5 min⁻¹
